Literature values as cited in US7109380B2, “Cyclopentenedione antifungal compounds and methods for their use” (The University of Mississippi, priority 2004, dated 2006).

Experiments:
Details in all cases: background; cited from earlier work
[1] = test system: several cancer cell lines
human chymase = human chymase (Homo sapiens, UniProt P23946)
[2] = test system: wheat leaf rust caused by Puccinia recondite

Chain of human chymase (P23946 22-247): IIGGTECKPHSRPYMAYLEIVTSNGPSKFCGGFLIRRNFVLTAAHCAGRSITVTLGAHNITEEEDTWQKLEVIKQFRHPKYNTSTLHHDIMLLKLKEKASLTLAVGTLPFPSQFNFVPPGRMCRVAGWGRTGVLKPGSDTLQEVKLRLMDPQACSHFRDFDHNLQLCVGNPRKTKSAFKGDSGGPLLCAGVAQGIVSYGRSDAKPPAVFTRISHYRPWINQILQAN

Structure (SMILES)	Cytotoxicity (in words) [1]	Inhibition of human chymase (in words) (human chymase)	Antifungal activity against wheat leaf rust (in words) [2]
COC(/C=C/c1ccccc1)=C1C(=O)C(OC)=C(OC)C1=O [methyllinderone]	cytotoxic	moderate inhibitor	
COC1=CC(=O)/C(=C(\C=C\c2ccccc2)OC)C1=O [methyllucidone]			moderately antifungal activity
